Data: patent publication US6204415A, “Triazole derivative or salt thereof, preparation process thereof and pharmaceutical containing said compound as an effective ingredient” (SSP Co., Ltd., priority 1997, dated 2001)
Converted amounts (≈) assume the structure as drawn.

Legend:
Aspergillus fumigatus = assay: Test 2: Action against Aspergillus fumigatus (in vitro), MIC; format: cell-based, Aspergillus fumigatus IFM 40808; details: A. fumigatus IFM 40808, MOPS-containing RPMI 1640, pH 7, almar Blue, 35° C., 48 hours
Protocol: Test 2: Action Against Aspergillus fumigatus (in vitro)
They were incubated at 35° C. for 48 hours. Judgment was made visually and the minimum medicament concentration not permitting a change into red (the medium maintained blue color) was designated as an MIC value (μg/ml).

Candida albicans = assay: Test 1: Action against Candida albicans (in vitro), suppression of mycelial type growth; format: cell-based, Candida albicans ATCC 44859; details: ATCC44859, C. albicans ATCC 44859, 10% fetal-bovine-serum added MEM, 37° C., 24 hours, CO2 incubator, read-out: Terminal point (minimum medicament concentration permitting the apparent suppression of mycerial type growth)
Protocol: Test 1: Action Against Candida albicans (in vitro)
The resulting mixture was incubated at 37° C. for 24 hours in a CO2 gas incubator. After incubation, a morphological change of C. albicans was observed under an inverted microscope. The minimum medicament concentration permitting the apparent suppression of mycerial type growth compared with that of a medicament-free control was designated as a terminal point (ng/ml).

C. albicans IFM 40009 = assay: Test 3: Action against Candida albicans (in vivo), systemic infection in mice; details: i.v. C. albicans 3.0×10^6 cells/mouse, oral 1.25 mg/kg each, four times; for Surviving mice on Day 14 (number of surviving mice/total number in group): Day 14, control 0/11; for Average Survival days: Kaplan-Meier method (Cox mantel test), control 4.5
Protocol: Test 3: Action Against Candida albicans (in vivo)
After 4-week-old, male, ICR (CRJ: CD-1) mice were fasted for 6 hours, C. albicans IFM 40009 was inoculated to the tail vein of each of the mice to give an amount of 3.0×10^6 cells/mouse, whereby infection was caused. A control group consisted of 11 mice, while a medicament-administered group consisted of 5 mice. The medicament dissolved in 20% polyethylene glycol was orally administered 1 hour after the inoculation of the fungus and then consecutively once a day 24 hours after the inoculation, four times in total, at 1.25 mg/kg each. The survival condition on Day 14 after the infection was compared. In addition, the survival days of the control group and the medicament-administered group were detected by the Kaplan-Meier method (Cox mantel test). Incidentally, Fluconazole was employed as a medicament for comparison.

Row | MIC (Aspergillus fumigatus) [µg/mL] | Compound | minimal effective concentration (Candida albicans) [µg/mL] | Surviving mice on Day 14 (number of surviving mice/total number in group) (C. albicans IFM 40009) | Average Survival days (C. albicans IFM 40009) [days]
1 | 8 (≈ 20 µM) | CCS(=O)(=O)C(F)(F)C(O)(Cn1cncn1)c1ccc(Cl)cc1Cl (stereo not drawn) [Example 18, 2-(2,4-dichlorophenyl)-1-(ethylsulfonyl)-1,1-difluoro-3-(1H-1,2,4-triazol-1-yl)-2-propanol] | 0.0156 |  | 
2 | 8 (≈ 22.9 µM) | CCS(=O)(=O)C(F)(F)C(O)(Cn1cncn1)c1ccc(F)cc1 (single isomer, unassigned; (-)) [Example 22(2), (-)-1-(Ethylsulfonyl)-1,1-difluoro-2-(4-fluorophenyl)-3-(1H-1,2,4-triazol-1-yl)-2-propanol] | 0.0156 |  | 
3 | 8 (≈ 25.2 µM) | CCSC(F)(F)C(O)(Cn1cncn1)c1ccc(F)cc1 (stereo not drawn) [Example 10, 1-(ethylthio)-1,1-difluoro-2-(4-fluorophenyl)-3-(1H-1,2,4-triazol-1-yl)-2-propanol] | 0.0313 |  | 
4 | 16 (≈ 43.6 µM) | CCSC(F)(F)C(O)(Cn1cncn1)c1ccc(C(F)(F)F)cc1 (stereo not drawn) [Example 11, 1-(ethylthio)-1,1-difluoro-2-(4-trifluoromethylphenyl)-3-(1H-1,2,4-triazol-1-yl)-2-propanol] | 0.0078 |  | 
5 | 8 (≈ 21.8 µM) | CCS(=O)(=O)C(F)(F)C(O)(Cn1cncn1)c1ccc(F)cc1F (racemic) [Example 15, 2-(2,4-difluorophenyl)-1-(ethylsulfonyl) -1,1-difluoro-3-(1H-1,2,4-triazole-1-yl)-2-propanol] | 0.0313 | 4/5 | 14.00
6 | 8 (≈ 22.9 µM) | CCSC(F)(F)C(Cn1cncn1)(OC)c1ccc(F)cc1F (stereo not drawn) [Example 13, 1-[2-(2,4-difluorophenyl)-3-ethylthio-3,3-difluoro-2-methoxypropyl]-1H-1,2,4-triazole] | 0.0313 |  | 
7 | 4 (≈ 10.9 µM) | CCS(=O)(=O)C(F)(F)C(O)(Cn1cncn1)c1ccc(F)cc1F (single isomer, unassigned; (-)) [Example 21(2), (-)-2-(2,4-difluorophenyl)-1-(ethylsulfonyl)-1,1-difluoro-3-(1H-1,2,4-triazol-1-yl)-2-propanol] | 0.0156 |  | 
8 | 2 (≈ 5.96 µM) | CCSC(F)(F)C(O)(Cn1cncn1)c1ccc(F)cc1F (stereo not drawn) [Example 9, 2-(2,4-difluorophenyl)-1-(ethylthio)-1,1-difluoro-3-(1H-1,2,4-triazol-1-yl)-2-propanol] | 0.0078 |  | 
9 | 1 (≈ 2.72 µM) | CCSC(F)(F)C(O)(Cn1cncn1)c1ccc(Cl)cc1Cl (stereo not drawn) [Example 12, 2-(2,4-dichlorophenyl)-1-(ethylthio)-1,1-difluoro-3-(1H-1,2,4-triazol-1-yl)-2-propanol] | 0.0039 |  | 

Row | Compound | MIC (Aspergillus fumigatus) [µg/mL] | minimal effective concentration (Candida albicans) [µg/mL] | Surviving mice on Day 14 (number of surviving mice/total number in group) (C. albicans IFM 40009) | Average Survival days (C. albicans IFM 40009) [days]
10 | OC(Cn1cncn1)(Cn1cncn1)c1ccc(F)cc1F [Fluconazole, reference compound] | > 128 | 0.25 | 1/5 | 11.0
